According to the NIST ThermoML archive (doi:10.1021/je050065n):

Assays:
[1] = molar heat capacity at constant pressure; settings: 101.33 kPa
[2] = Molar enthalpy of transition or fusion; settings: Crystal
[3] = Crystal

CCCCCCCCCCCCC(=O)OCC [ethyl tridecanoate]
[1]
Settings | molar heat capacity at constant pressure [J/K/mol]
203.72 K, Crystal | 303.18
204.3 K, Crystal | 304.48
206.07 K, Crystal | 306.99
209.03 K, Crystal | 310.71
211.98 K, Crystal | 314.26
214.92 K, Crystal | 318.07
217.87 K, Crystal | 321.89
220.82 K, Crystal | 325.88
226.72 K, Crystal | 334
229.65 K, Crystal | 338.41
232.57 K, Crystal | 342.7
235.47 K, Crystal | 347.41
238.34 K, Crystal | 352.35
241.19 K, Crystal | 357.3
244.03 K, Crystal | 362.39
246.84 K, Crystal | 368.11
249.63 K, Crystal | 374.08
252.4 K, Crystal | 380.86
255.15 K, Crystal | 387.34
257.88 K, Crystal | 398.08
260.57 K, Crystal | 413.23
277.28 K, Liquid | 486.51
279.73 K, Liquid | 487.34
282.18 K, Liquid | 488.17
288.64 K, Liquid | 490.72
291.29 K, Liquid | 492.03
293.93 K, Liquid | 493
296.56 K, Liquid | 494.67
299.2 K, Liquid | 496
301.82 K, Liquid | 497.42
304.44 K, Liquid | 498.94
307.06 K, Liquid | 500.72
309.67 K, Liquid | 502.48
312.27 K, Liquid | 503.98
314.87 K, Liquid | 505.99
317.47 K, Liquid | 507.58
320.06 K, Liquid | 509.22

Settings | Molar enthalpy of transition or fusion [kcal/mol] | Triple point temperature [K]
[2] | 9.728 | –
[3] | – | 272.4
